Tests used:
LOX IMVI = assay: NCI DTP 60 cell line five-concentration test, melanoma panel; format: cell-based; details: for LC50 (50% lethal concentration) / GI50: Homo sapiens; for LC50 (50% lethal concentration): LOX IMVI, read-out: LC50 (50% lethal concentration); for GI50 / TGI (total growth inhibition): LOX IMVI melanoma cell line
Procedure: (§1) In our effort to develop new methodologies to synthesize bioactive compounds [11–14], we have synthesized a number of thiazole and thiazolo-androstenone derivatives. We submitted 50 of the synthesized thiazole–androstenone derivatives to the National Cancer Institute (NCI) Development Therapeutics Program (DTP) to test against 60 cancer cell lines (https://dtp.cancer.gov/). These compounds were tested for cytotoxicity at a single dose of 10 µM. […] Eight of these chimeric compounds (figure 2) were selected for further testing at five different concentrations to determine 50% growth inhibition (GI50), total growth inhibition (TGI) and 50% lethal concentration (LC50) values. […] Overall, amino-thiazole derivatives (table 1, 1–7) were more toxic to melanoma cell lines than phenyl thiazole derivatives (8). Fluoro and oxy (hydroxy and methoxy) derivatives were the potent growth inhibitors of the tested cancer cell lines. LOX IMVI cell line was the most susceptible among all the melanoma cell lines used against the tested compounds (table 1). […] Phenyl ethyl derivative (1) inhibited the growth of all the cell lines except SK-MEL-2. […] 2,4-Dimethyl substituted derivative (7) is a potent growth inhibitor of all the tested cell lines of the melanoma panel.

MDA-MB-435 = assay: as above; format: cell-based; details: for CC50 / GI50: Homo sapiens; for CC50: MDA-MB-435, read-out: LC50 (50% lethal concentration); for GI50 / TGI (total growth inhibition): MDA-MB-435 melanoma cell line
Procedure: as §1

SK-MEL-2 = assay: as above; format: cell-based; details: for LC50 (50% lethal concentration) / GI50: Homo sapiens; for LC50 (50% lethal concentration): SK-MEL-2, read-out: LC50 (50% lethal concentration); for GI50 / TGI (total growth inhibition): SK-MEL-2 melanoma cell line
Procedure: as §1

UACC-62 = assay: as above; format: cell-based; details: for GI50 / LC50 (50% lethal concentration): Homo sapiens; for GI50: UACC-62, UACC-62 melanoma cell line; for LC50 (50% lethal concentration): UACC-62, read-out: LC50 (50% lethal concentration); for TGI (total growth inhibition): UACC-62 melanoma cell line
Procedure: as §1

SK-MEL-5 = assay: as above; format: cell-based; details: for CC50 / GI50: Homo sapiens; for CC50: SK-MEL-5, read-out: LC50 (50% lethal concentration); for GI50 / TGI (total growth inhibition): SK-MEL-5 melanoma cell line
Procedure: as §1

M14 = assay: as above; format: cell-based; details: for GI50 / CC50: Homo sapiens; for GI50: M14, M14 melanoma cell line; for CC50: M14, read-out: LC50 (50% lethal concentration); for TGI (total growth inhibition): M14 melanoma cell line
Procedure: as §1

MALME-3M = assay: as above; format: cell-based; details: for CC50 / GI50: Homo sapiens; for CC50: Malme-3M, read-out: LC50 (50% lethal concentration); for GI50 / TGI (total growth inhibition): MALME-3M melanoma cell line
Procedure: as §1

UACC-257 = assay: as above; format: cell-based; details: for CC50 / GI50: Homo sapiens; for CC50: UACC-257, read-out: LC50 (50% lethal concentration); for GI50 / TGI (total growth inhibition): UACC-257 melanoma cell line
Procedure: as §1

SK-MEL-28 = assay: as above; format: cell-based; details: for GI50 / CC50: Homo sapiens; for GI50: SK-MEL-28, SK-MEL-28 melanoma cell line; for CC50: SK-MEL-28, read-out: LC50 (50% lethal concentration); for TGI (total growth inhibition): SK-MEL-28 melanoma cell line
Procedure: as §1

[1] = Solubility in the growth media; format: physicochemical; details: growth media of the HFF-1 test
melanoma panel = assay: NCI DTP test, statements for the whole melanoma panel; format: cell-based
Procedure: as §1

[2] = system: caspase-activated DNase (CAD); assay: CAD immunocytochemistry combined with TUNEL (caspase-mediated apoptosis); format: cell-based; details: melanoma cells, 5 or 10 µM, 24 h
Description: (§2) The elevation was dose-dependent.
(§3) Figure 4. […] (c) Representative images. […] Mean ± s.e.m., n = 4 per group.
(§4) Figure 5. […] (a) Representative images of TUNEL colocalized or not colocalized with each of the three protein markers used in this study. […] Mean ± s.e.m., n = 4 per group.
(§5) Thus, to determine the mechanism of action of our compounds on melanoma cells in vitro, we applied the fluorescent TUNEL assay combined with quantitative ICC for three markers: HO1 for oxidative cell injury, CAD for caspase-mediated apoptosis and EndoG for caspase-independent apoptosis. […] However, none of the compounds or dacarbazine induced apoptotic endonucleases. This is not surprising because apoptotic endonucleases are commonly present in the cell in sufficient amounts to be able to destroy DNA upon cell death without induction (which most likely would not be possible in a dead cell).

melanoma cells = assay: TUNEL staining for DNA fragmentation and irreversible cell death; details: 5 or 10 µM, 24 h
Description: Apoptosis is usually associated with profound DNA fragmentation that makes the cell death irreversible. DNA fragmentation could be due to the increasing of nuclear DNA access to apoptotic endonucleases and the induction of these enzymes. This DNA fragmentation is best measured by using the terminal deoxynucleotidyl transferase dUTP nick-end labelling (TUNEL) assay. […] Immunostaining for major marker of oxidative injury, heme oxygenase-1 (HO1) was done to determine whether the test compounds induce oxidative injury. […] Activation of endonucleases and their translocation to the nucleus is actually the last step when cell death becomes irreversible. It is often preceded by an oxidative cell injury that activates or aggravates the cell death mechanism. To measure whether our compounds induce oxidative injury, we chose to measure HO1 which is a well-established mechanistic marker of oxidative injury. Because HO1 is not a nuclear marker and it is not translocated to the nucleus and contact DNA during cell death, instead of colocalization by pixels, we counted the percentage of TUNEL-positive (dead) cells which are also HO1-positive (figure 5a). […] We next examined whether caspase-activated DNase (CAD), a known mechanistic marker of caspase-mediated apoptosis, is colocalized with TUNEL during cell death induced by dacarbazine or our test compounds (3, 4 and 5).
Figure 4. […]

endonuclease G (EndoG) = assay: EndoG immunocytochemistry combined with TUNEL (caspase-independent apoptosis); format: cell-based; details: melanoma cells, 24 h
Description: as §2, §3, §4, §5

SK-MEL-28 cell line = assay: Annexin V flow cytometry apoptosis assay; format: cell-based; details: SK-MEL-28, 200 µM
Procedure: After determining the selective toxicity of potent molecules, we determined their mode of action against the melanoma cell line. Apoptosis or programmed cell death is a physiological process to remove unwanted or damaged mammalian cells. We detected apoptosis mode of cell death by our potent compounds using flow cytometry-based Annexin V assay. Compound 3 caused 23% apoptosis at 6 µM and 54% apoptosis at 12 µM (figure 3). 3-Fluorophenyl derivative (5) was a very potent apoptosis-inducing agent that caused 100% cell death at 12 µM concentration. Dacarbazine, the positive control, caused 22% apoptotic cell death at 200 µM concentration.
Figure 3. Apoptosis measurements using Annexin V flow cytometry assay of compounds 3 and 5 against SK-MEL-28 cell line at 6 and 12 µM concentrations. DMSO and dacarbazine (Daca) are negative and positive controls, respectively. Mean ± s.e.m., n = 3 per group.

heme oxygenase-1 (HO1) = assay: HO1 immunocytochemistry combined with TUNEL (oxidative injury); format: cell-based; details: melanoma cells, 5 or 10 µM, 24 h
Description: as §2, §3, §4, §5

HFF-1 cell line = assay: Toxicity for normal human foreskin fibroblast cell line; format: cell-based; details: normal human foreskin fibroblast HFF-1
Description: To assess the potential use of lead compounds as anti-melanoma agents, we tested their toxicity for the normal human foreskin fibroblast (HFF-1) cell line taking into consideration that MM is usually surrounded by the cells of this kind. The effects of some of the potent compounds on this cell line were very encouraging (table 4).

Compound	LC50 (50% lethal concentration) (LOX IMVI)	GI50 (LOX IMVI)	TGI (total growth inhibition) (LOX IMVI)	CC50 (MDA-MB-435)	GI50 (MDA-MB-435)	TGI (total growth inhibition) (MDA-MB-435)	LC50 (50% lethal concentration) (SK-MEL-2)	GI50 (SK-MEL-2)	TGI (total growth inhibition) (SK-MEL-2)	GI50 (UACC-62)	LC50 (50% lethal concentration) (UACC-62)	TGI (total growth inhibition) (UACC-62)	CC50 (SK-MEL-5)	GI50 (SK-MEL-5)	TGI (total growth inhibition) (SK-MEL-5)	GI50 (M14)	CC50 (M14)	GI50 (MALME-3M)	GI50 (UACC-257)	GI50 (SK-MEL-28)	further results
C[C@]12CCc3nc(-c4cccc(F)c4)sc3C1=CC[C@@H]1[C@@H]2CC[C@]2(C)C(=O)CC[C@@H]12 [Compound 8]	6.47 µM	1.74 µM	3.36 µM	> 100 µM	2.97 µM	>100 µM	> 100 µM	2.74 µM	10.7 µM	1.9 µM	37.3 µM	5.70 µM	65.1 µM	4.05 µM	16.9 µM	6.62 µM	> 100 µM	1.8 µM	6.12 µM	1.53 µM	TGI (total growth inhibition) (M14): >100 µM; CC50 (MALME-3M): 9.48 µM; TGI (total growth inhibition) (MALME-3M): 4.13 µM; CC50 (UACC-257): > 100 µM; TGI (total growth inhibition) (UACC-257): >100 µM; CC50 (SK-MEL-28): > 100 µM; TGI (total growth inhibition) (SK-MEL-28): 4.07 µM; solubility in the growth media [1]: low solubility
C[C@]12CCc3nc(Nc4ccc(F)cc4F)sc3C1=CC[C@@H]1[C@@H]2CC[C@]2(C)C(=O)CC[C@@H]12 [Compound 6]		1.71 µM			> 100 µM			> 100 µM		> 100 µM				1.88 µM		> 100 µM		> 100 µM	> 100 µM	> 100 µM	TGI values against the cell lines of the melanoma panel (melanoma panel): did not show any useful TGI values
CN(C)/N=N/c1[nH]cnc1C(N)=O [dacarbazine, reference compound]																					CAD mean intensity [2]: No significant induction; colocalization of CAD with TUNEL (caspase-mediated apoptosis) [2]: did not induce any association of CAD with TUNEL; cytotoxicity by TUNEL staining (TUNEL-positivity) (melanoma cells): negligent; EndoG overlap with TUNEL staining (caspase-independent apoptosis) (endonuclease G (EndoG); 5 µM): did not show any effect; EndoG overlap with TUNEL staining (caspase-independent apoptosis) (endonuclease G (EndoG); 10 µM): significant increase; EndoG mean intensity (endonuclease G (EndoG); 5 or 10 µM): No significant induction; apoptotic cell death (SK-MEL-28 cell line): 22%; HO1 staining in TUNEL-positive cells (oxidative injury) (heme oxygenase-1 (HO1)): without induction of HO1; toxicity against HFF1 cells (in words) (HFF-1 cell line): did not show any notable toxicity; IC50 (HFF-1 cell line; read-out: IC50 against HFF1 cell line): > 100 µM
C[C@]12CCc3nc(NCCc4ccccc4)sc3C1=CC[C@@H]1[C@@H]2CC[C@]2(C)C(=O)CC[C@@H]12 [Compound 1]	5.91 µM	1.7 µM	3.17 µM	> 100 µM	3.01 µM	>100 µM	> 100 µM	17 µM	>100 µM	2.67 µM	> 100 µM	10.6 µM	> 100 µM	4.57 µM	52.7 µM	3.63 µM	> 100 µM	2.18 µM	4.92 µM	3.37 µM	TGI (total growth inhibition) (M14): >100 µM; CC50 (MALME-3M): > 100 µM; TGI (total growth inhibition) (MALME-3M): 6.82 µM; CC50 (UACC-257): > 100 µM; TGI (total growth inhibition) (UACC-257): 79.8 µM; CC50 (SK-MEL-28): > 100 µM; TGI (total growth inhibition) (SK-MEL-28): 18.9 µM; solubility in the growth media [1]: low solubility

From PMC8355692, “Antimelanoma activities of chimeric thiazole–androstenone derivatives” (Royal Society Open Science, 2021)
